Assay results: US20230212129A1, “QUINAZOLINE DERIVATIVES USEFUL AS SELECTIVE HDAC6 INHIBITORS” (AnnJi Pharmaceutical Co., Ltd., priority 2020, published 2023)

What was measured:
[1] = system: acetylated α-tubulin (Ac-α-tub); experiment: Western blot of acetylated α-tubulin in primary DRG cells; type: cell-based, C57BL/6J mice; conditions: 48 hours of treatment, FIG. 2
Protocol: (§1) To investigate the effect of HDAC6 inhibitors in neuron protection and neuron regeneration, the recovery of dorsal root ganglion (DRG) cells post-paclitaxel injury was tested. Dorsal root ganglion was extracted from 7 week-old female C57BL/6J mice and incubated with HDAC6 inhibitors (compounds COMPOUND 33, COMPOUND 34, or COMPOUND 2) at the concentrations of 0.1 μM and 1 μM, or 100 ng/ml of BDNF, a neuronal growth factor (positive control), for 24 hours prior to a 24-hour incubation of 0.1 μM paclitaxel.

[2] = system: dorsal root ganglion (DRG) cells; experiment: DRG neurite outgrowth after paclitaxel-induced damage; type: cell-based, C57BL/6J mice; conditions: 0.1 μM and 1 μM, 24 hours prior to 24-hour 0.1 μM paclitaxel; FIG. 1
Protocol: as §1
The neurite was stained by pIII-tubulin.

IL-6 = IL-6 in bronchoalveolar lavage fluid, bleomycin model; type: in vivo, mice; conditions: prevention model, 30 mg/kg oral, 21 days; FIG. 6
Protocol: (§2) The activities of compounds COMPOUND 2 and COMPOUND 33 in preventing and/or treating pulmonary fibrosis were examined using a bleomycin-induced pulmonary fibrosis model, a model that involves deactivated bleomycin hydrolase, elevated oxidative stress, and increased inflammatory cytokines. In the prevention model, mice were administered bleomycin intratracheally an hour in prior to the first oral administration of 30 mg/kg testing compounds. The treatment continued for 21 consecutive days, and mice were sacrificed to examine histological changes of lung tissues were analyzed by H&E staining to evaluate the degree of lung fibrosis.

[3] = system: bleomycin-induced pulmonary fibrosis; experiment: Bleomycin-induced pulmonary fibrosis model, lung histology (H&E); type: in vivo, mice
Protocol: as §2, with “fibrosis. Additionally, the HDAC6 inhibitors, COMPOUND 2 and COMPOUND 33, were tested for their effect in aiding animal recovery from lung injury and pulmonary fibrosis post injury.” for “fibrosis.”

[4] = system: BioMAP Fibrosis panel (REMyoF, SAEMyoF, MyoF systems); experiment: BioMAP Fibrosis panel cytokine/biomarker profiles; type: cell-based
Protocol: The HDAC6 inhibitor compounds were tested in a commercially available platform, BioMAP, for the cytokine profiles in related to tissue injuries. The BioMAP Fibrosis panel included 3 systems stimulated to model TGFβ and TNFα driven myofibroblast differentiation during chronic inflammation and wound healing in different tissue settings. Fibrotic disease of the kidney associated with end-stage renal failure was captured in the REMyoF system consisting of a co-culture of renal proximal tubule epithelial cells and adult fibroblasts. Interstitial lung diseases, including pulmonary fibrotic diseases such as idiopathic pulmonary fibrosis (IPF), was modeled by co-culturing small airway epithelial cells and adult fibroblasts in the SAEMyoF system. Both co-culture systems modeled the paracrine interaction between myofibroblasts and the proximally located epithelial cells, while the impact on fibroblasts alone was interrogated using the monoculture MyoF system. A signature BioMAP profile that is reflective of the changes in protein biomarker readouts within an individual system was generated for each testing compounds. Biomarker readouts selected for therapeutic and biological relevance were predictive for disease outcomes or specific drug effects, and was validated using agents with known clinical efficacy. Each readout was measured quantitatively by immune-based methods that detect protein (e.g., ELISA).

HDAC1 = molecular target: T1, HDAC1 (Homo sapiens, UniProt Q13547); experiment: HDAC1 activity, acetylated-AMC-labeled peptide substrate; type: biochemical
T1 construct: GST (C); host or cells: baculovirus expression system, Sf9 insect cells (SP9 [sic])
Protocol: (§3) The activities of HDAC 1 and 6 were measured by using an acetylated-AMC-labeled peptide substrate, a fluorogenic peptide from p53 residues 379-382 (RHIKKAc). The proteins involved in the assay are as the followings (1) Human HIDAC1 (Genflank Accession No. NM_004964): Full length with C-terminal GST tag, MW=79.9 kDa, expressed by baculovirus expression system in SP9 cells; and (2) Human HIDAC6 (Genflank Accession No. BC069243): Full length with N-terminal GST tag, MW=159 kDa, expressed by baculovirus expression system in Sf9 cells.

[5] = Oral pharmacokinetics (Table II); parameters: AUC: concentration or dose not given beside the values; conditions: in vivo
HDAC6 = molecular target: T2, HDAC6 (Homo sapiens, UniProt Q9UBN7); experiment: HDAC6 activity, acetylated-AMC-labeled peptide substrate; type: biochemical
T2 construct: GST (N); host or cells: baculovirus expression system, Sf9 insect cells
T2 sequence (Q9UBN7 1-1215): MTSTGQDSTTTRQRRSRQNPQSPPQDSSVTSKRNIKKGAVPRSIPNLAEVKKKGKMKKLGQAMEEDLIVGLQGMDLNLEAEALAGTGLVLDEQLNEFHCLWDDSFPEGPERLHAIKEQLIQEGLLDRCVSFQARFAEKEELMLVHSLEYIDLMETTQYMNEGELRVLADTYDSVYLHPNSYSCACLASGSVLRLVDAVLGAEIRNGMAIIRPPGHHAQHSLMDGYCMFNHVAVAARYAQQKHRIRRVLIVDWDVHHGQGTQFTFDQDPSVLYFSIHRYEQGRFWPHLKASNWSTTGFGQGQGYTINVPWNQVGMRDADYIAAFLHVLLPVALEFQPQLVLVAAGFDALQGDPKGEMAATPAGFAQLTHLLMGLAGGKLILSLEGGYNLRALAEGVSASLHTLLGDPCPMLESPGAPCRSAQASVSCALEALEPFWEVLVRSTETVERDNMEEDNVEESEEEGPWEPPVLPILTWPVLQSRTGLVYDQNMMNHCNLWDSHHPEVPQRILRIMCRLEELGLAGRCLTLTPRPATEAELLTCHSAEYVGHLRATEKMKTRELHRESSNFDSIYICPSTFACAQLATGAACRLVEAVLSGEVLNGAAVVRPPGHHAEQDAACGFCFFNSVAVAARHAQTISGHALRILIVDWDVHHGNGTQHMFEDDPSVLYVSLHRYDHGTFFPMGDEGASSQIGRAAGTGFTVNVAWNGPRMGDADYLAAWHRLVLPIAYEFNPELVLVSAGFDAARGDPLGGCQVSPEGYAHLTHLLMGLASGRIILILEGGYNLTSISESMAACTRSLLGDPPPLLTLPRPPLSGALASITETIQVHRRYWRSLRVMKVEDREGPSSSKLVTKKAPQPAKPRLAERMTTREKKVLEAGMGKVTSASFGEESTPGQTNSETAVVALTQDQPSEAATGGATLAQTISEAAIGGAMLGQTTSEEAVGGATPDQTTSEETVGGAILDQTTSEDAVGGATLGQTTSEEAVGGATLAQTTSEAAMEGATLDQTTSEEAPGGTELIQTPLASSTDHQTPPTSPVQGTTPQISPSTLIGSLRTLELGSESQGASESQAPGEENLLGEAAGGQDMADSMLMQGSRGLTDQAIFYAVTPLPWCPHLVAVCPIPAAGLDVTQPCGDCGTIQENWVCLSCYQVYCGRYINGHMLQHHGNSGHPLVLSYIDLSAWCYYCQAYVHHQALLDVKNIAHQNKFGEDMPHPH
Protocol: as §3

T1 sequence (Q13547 whole entry): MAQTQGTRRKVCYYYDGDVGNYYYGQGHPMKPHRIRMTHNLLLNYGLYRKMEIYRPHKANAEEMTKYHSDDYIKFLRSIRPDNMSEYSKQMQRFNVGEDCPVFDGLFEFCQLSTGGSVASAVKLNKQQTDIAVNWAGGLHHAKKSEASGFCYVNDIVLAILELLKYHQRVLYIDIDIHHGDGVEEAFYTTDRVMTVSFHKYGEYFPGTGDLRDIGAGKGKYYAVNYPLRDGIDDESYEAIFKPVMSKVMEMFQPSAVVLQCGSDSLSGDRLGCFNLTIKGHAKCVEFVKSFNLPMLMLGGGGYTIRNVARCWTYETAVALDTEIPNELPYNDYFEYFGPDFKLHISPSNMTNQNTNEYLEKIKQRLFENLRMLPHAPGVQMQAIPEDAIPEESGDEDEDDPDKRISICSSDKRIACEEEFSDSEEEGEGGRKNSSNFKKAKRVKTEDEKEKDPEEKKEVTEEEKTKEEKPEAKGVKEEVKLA

In the case of `CCc1nc2cc(F)c(/C=C/C(=O)NO)cc2c(=O)n1-c1ccccc1` [Compound 33, (E)-3-(2-ethyl-7-fluoro-4-oxo-3-phenyl-3,4-dihydroquinazolin-6-yl)-N-hydroxyacrylamide], the tubulin hyperacetylation [1] is reported as “tubulin hyperacetylation”, the neurite outgrowth [2] is reported as “significantly rescued the neurite outgrowth” and the “IL-6 level in the BALF” value (IL-6) is reported as “suppressed IL-6 level in the BALF”. For the same compound, the “development of lung fibrosis” value ([3]; prevention model, 30 mg/kg oral, 21 consecutive days, FIG. 5) was “markedly decreased the development of lung fibrosis”, the “recovery from lung injury and pulmonary fibrosis post injury” value ([3]; treatment post injury) was “protective effect in pulmonary inflammatory response and pulmonary fibrosis” and the fibrosis-related matrix activities ([4]; BioMAP readouts) was “decreased Collagen III, MMP-9; increased Collagen IV; modulated MMP-1, Collagen I”. The inflammation-related activities ([4]; BioMAP readouts) was “decreased M-CSF, sIL-6, MCP-1; modulated IP-10, I-TAC”, the myofibroblast activation-related activities ([4]; BioMAP readouts) was “decreased αSMA, E-Cadherin, N-Cadherin” and the “tissue remodeling/wound healing activities” value ([4]; BioMAP readouts) was “decreased EGFR, tPA, uPA; modulated sVEGF”. The “activities on cytokines contributing to fibrosis” value ([4]; compared with nintedanib) was “marked activities in decreasing TNF-α, IL-1, IL-6, MMP-9, VEGF, and collagen I”, the IC50 (HDAC1) was 4440 nM and the Cmax [5] was 2720 ng/mL. The AUC ([5]; unit inferred) was 11000 ng·h/mL, the “HDAC6 selectivity (A)/(B)” value (HDAC6; HDAC1 IC50 / HDAC6 IC50) was 134 and the IC50 (HDAC6; read-out: HDAC6 IC50 (B)) was 33 nM.
